Each block holds one substance with its values, some of them ahead of it. Where no end group is shown, it is not given here.
Assays:
serum IgG autoantibodies = assay: ELISA for autoantibody detection: serum antibody binding to native and oxPTM insulin peptides; parameters: species or system human; settings: for % binders, Healthy controls / Mean ± SEM (absorbance, OD), Healthy controls / % binders, Type 1 diabetes: Study cohort 1; for % binders, Healthy controls / Mean ± SEM (absorbance, OD), Healthy controls / % binders, Type 1 diabetes / Mean ± SEM (absorbance, OD), Type 1 diabetes: in house modifications; for % binders, Type 1 diabetes: cut-off = mean of healthy controls to Nt-INSP plus 3 SEM; for Mean ± SEM (absorbance, OD), Type 1 diabetes: Study cohort 1 sera; for Antibody reactivity of serum samples (in words): ELISA
Method: ELISA for autoantibody detection. The ELISA analysis of Nt-INS and oxPTM-INS autoantibodies was performed as previously described [18](detailed in ESM methods, ELISA assay for antibody detection).
Statistical analyses. Statistical analyses were performed using Prism Software 9.0 (GraphPad, San Diego, CA, USA). Cut-off points of positivity (binders) in the antibody ELISA for each peptide were defined by the mean of optical absorbance (O.D) of healthy controls to the corresponding Nt-INSP plus three times the standard error of the mean (SEM). Specificity and sensitivity were evaluated by receiver operating characteristic (ROC) curve analysis. Area under the curve (AUC) is reported as absolute value and was tested for equality according to DeLong et al. Differences in antibody levels and T-cell stimulation indices (SI) between groups were tested by the One way ANOVA or Student's t-tests as appropriate. Correlation analyses were tested by Pearson or Spearman's test, as appropriate. Categorical analyses were performed by Chi-square or McNemar's tests, as appropriate. For each set of experiments, p values were adjusted for multiple comparison using the Holm-Sidak's test. Hierarchical cluster and Principal Component Analysis (PCA) was done using Clustvis software (https://biit.cs.ut.ee/clustvis/) and Prism Software 9.0, respectively.
Antibody reactivity of type 1 diabetes serum against the candidate oxPTM-INSP. Identified peptide candidates were synthesised and exposed to either HOCl or ^●OH to generate oxPTM-INSPs that were first assessed by TOF-MS/ES+TIC to confirm modification (FIG. 17). Antibody response against native INSPs (Nt-INSPs) and oxPTM-INSPs was evaluated by ELISA using sera from Study cohort 1.
ESM Methods ELISA assay for antibody detection. The ELISA analysis of native (Nt-INS) and modified insulin (oxPTM-INS) was performed as previously described. Briefly, the ELISA plate was coated overnight at 4° C. with 100 μl per well of modified or native insulin in 0.05 M carbonate/bicarbonate buffer pH 9.6 at 10 μg/ml. The next day, the plates were washed 3 times with 0.1% Tween PBS, followed by blocking for 2 hours at room temperature with 200 μl per well of 5% BSA in 0.1% Tween PBS. After washing, 100 μl of 1:200-diluted serum samples in 5% BSA-0.1% Tween PBS were added for additional 2 hours incubation. ELISA plates were then washed 3 times with 0.1% Tween PBS followed by probing with anti-human IgG horse radish peroxidase conjugated (HRP, Sigma) at 1:1,000 dilution in 5% BSA-0.1% Tween PBS for another 1.5 hours incubation. The ELISA plates were washed, and 100 μg/ml TMB substrate in 0.1M sodium acetate pH 6.0 plus 2 μl/10 ml of H2O2, were added. Subsequently, the reaction was stopped with 20% v/v sulphuric acid. The optical density (O.D.) was measured at 450 nm using a GENios plate reader and Magellan software (TECAN, Dorset, UK).

CD8+ T-cells (PBMCs) = assay: In vitro peptide stimulation and T-cell proliferation assay, CD8+; format: cell-based, human
Source text: (§1) In vitro peptide stimulation and T-cell proliferation assay. Peripheral blood mononuclear cells (PBMCs) were freshly isolated from type 1 diabetes and healthy individuals using Ficoll-Hypaque density gradient centrifugation. PBMCs were labelled with the fluorescent dye CellTrace Violet (Invitrogen, Thermo Fisher Scientific) and cultured (2×10^5 cells/well) in round-bottom 96-well plates (Falcon, Becton Dickinson) with RPMI-1640 medium (Gibco, Thermo Fisher Scientific) supplemented with 5% autologous plasma in the presence or not of insulin peptides (20 μg/ml); PPD (10 μg/ml) and anti-CD3 (0.1 μg/ml; clone OKT3) were used as positive control. Two scrambled peptides: […] (SEQ ID NO: 17), […] (SEQ ID NO: 18), and the Exendin 9-39 fragment were used as negative controls. After 7 days, PBMCs were stained with PE-Cy7 anti-CD8 (clone RPA-T8, BD Pharmingen) and FITC anti-CD3 (clone UCHT1, BD Pharmingen). Samples were analysed by using a FACSCanto II (BD Bioscience) to evaluate T-cell proliferation measured as CellTrace Violet dilution. Cytofluorimetric analyses were performed using FlowJo Software (FlowJo, LLC). The results were given as stimulation index (SI), calculated as percentage of stimulated T-cell subset proliferation/percentage of unstimulated T-cell subset proliferation. Assay for detection of peptide specific T cells subsets was done as previously described (detailed in ESM methods, Assay for detection of peptide specific T cells)
(§2) T-cell stimulation with oxPTM-INSPs. To evaluate the immune cell response against the oxPTM-INSPs, we performed CD4+ and CD8+ T cells proliferation experiments using freshly isolated PBMCs (Study cohort 2, Table 1). Response was calculated as stimulatory index (SI) over unstimulated T-cells.

CD4+ T-cells (PBMCs) = assay: In vitro peptide stimulation and T-cell proliferation assay, CD4+; format: cell-based, human
Source text: as §1, §2

% binders, Healthy controls (serum IgG autoantibodies): 27%
Mean ± SEM (absorbance, OD), Healthy controls (serum IgG autoantibodies): 0.296 ± 0.022
% binders, Type 1 diabetes (serum IgG autoantibodies): 66%
Mean ± SEM (absorbance, OD), Type 1 diabetes (serum IgG autoantibodies): 0.563 ± 0.053
Mean ± SEM (absorbance, OD), Type 1 diabetes (serum IgG autoantibodies; listed as HOCl-modified oxPTM-INSP-4): 0.563±0.053
Substance: INSP-4 oxPTM-HOCI: INSP-4 peptide oxidised in house by HOCl (LVEALYLVCGERGFFYTPKT; also: oxidised by HOCl, modified residues not defined)

Substance: ERGFFYTPKTR (Ac-ERGFFYTPKTR) [INSP-6 with C-terminal arginine]
CD8+ T-cell response, subjects with SI > 1 (%) (CD8+ T-cells (PBMCs); Controls (N = 11)): (27.3%)
CD8+ T-cell response, subjects with SI > 3 (%) (CD8+ T-cells (PBMCs); Controls (N = 11)): (0.0%)
CD8+ T-cell response, subjects with SI > 5 (%) (CD8+ T-cells (PBMCs); Controls (N = 11)): (0.0%)
CD8+ T-cell response, subjects with SI > 10 (%) (CD8+ T-cells (PBMCs); Controls (N = 11)): (0.0%)
CD8+ T-cell response, subjects with SI > 1 (%) (CD8+ T-cells (PBMCs); Type 1 diabetes (N = 18)): (44.4%)
CD8+ T-cell response, subjects with SI > 3 (%) (CD8+ T-cells (PBMCs); Type 1 diabetes (N = 18)): (16.7%)
CD8+ T-cell response, subjects with SI > 5 (%) (CD8+ T-cells (PBMCs); Type 1 diabetes (N = 18)): (16.7%)
CD8+ T-cell response, subjects with SI > 10 (%) (CD8+ T-cells (PBMCs); Type 1 diabetes (N = 18)): (16.7%)
CD4+ T-cell response, subjects with SI > 1 (%) (CD4+ T-cells (PBMCs); Controls (N = 11)): (36.4%)
CD4+ T-cell response, subjects with SI > 3 (%) (CD4+ T-cells (PBMCs); Controls (N = 11)): (0.0%)
CD4+ T-cell response, subjects with SI > 5 (%) (CD4+ T-cells (PBMCs); Controls (N = 11)): (0.0%)
CD4+ T-cell response, subjects with SI > 10 (%) (CD4+ T-cells (PBMCs); Controls (N = 11)): (0.0%)
CD4+ T-cell response, subjects with SI > 1 (%) (CD4+ T-cells (PBMCs); Type 1 diabetes (N = 18)): (55.6%)
CD4+ T-cell response, subjects with SI > 3 (%) (CD4+ T-cells (PBMCs); Type 1 diabetes (N = 18)): (27.8%)
CD4+ T-cell response, subjects with SI > 5 (%) (CD4+ T-cells (PBMCs); Type 1 diabetes (N = 18)): (21.1%)
CD4+ T-cell response, subjects with SI > 10 (%) (CD4+ T-cells (PBMCs); Type 1 diabetes (N = 18)): (11.1%)

Antibody reactivity of serum samples (in words) (serum IgG autoantibodies): No significant reactivity
Substance: LVEALYLVCGER [INSP-2, insulin B:11-22 peptide]

type 1 diabetes binders (IgG autoantibody reactivity) (serum IgG autoantibodies; Study cohort 2, N = 18): 50%
Substance: ^●OH-INS: insulin modified by hydroxyl radical

Antibody reactivity of serum samples (in words) (serum IgG autoantibodies): No reactivity
Substance: LVEALYLVCG

% binders, Healthy controls (serum IgG autoantibodies): 12%
Mean ± SEM (absorbance, OD), Healthy controls (serum IgG autoantibodies): 0.280 ± 0.020
% binders, Type 1 diabetes (serum IgG autoantibodies): 83%
Mean ± SEM (absorbance, OD), Type 1 diabetes (serum IgG autoantibodies): 0.461 ± 0.013
Mean ± SEM (absorbance, OD), Type 1 diabetes (serum IgG autoantibodies; listed as ●OH-modified oxPTM-INSP-6): 0.461±0.013
Substance: INSP-6 oxPTM-•OH: INSP-6 peptide oxidised in house by hydroxyl radical (ERGFFYTPKT; not fully specified (N-terminus); also: oxidised by hydroxyl radical, modified residues not defined)

% binders, Healthy controls (serum IgG autoantibodies): 40%
Mean ± SEM (absorbance, OD), Healthy controls (serum IgG autoantibodies): 0.452 ± 0.048
% binders, Type 1 diabetes (serum IgG autoantibodies): 53%
Mean ± SEM (absorbance, OD), Type 1 diabetes (serum IgG autoantibodies): 0.473 ± 0.037
Substance: INSP-3 oxPTM-HOCI: INSP-3 peptide oxidised in house by HOCl (SLYQLENYCN; not fully specified (N-terminus); also: oxidised by HOCl, modified residues not defined)
